Experimental data taken from US5840684A, “Glycopeptide antibiotic derivatives” (Eli Lilly and Company, priority 1995, dated 1998).
≈ marks a conversion by molar mass, not a printed value.

Legend:
[1] = system: Streptococcus pneumoniae P1; assay: broth micro-dilution MIC; format: cell-based
Description: (§1) The formula I compounds have in vitro and in vivo activity against Gram-positive pathogenic bacteria. The MIC's were determined using a standard broth micro-dilution assay.

[2] = system: Staphylococcus epidermidis 270; assay: broth micro-dilution MIC; format: cell-based
Description: as §1

[3] = system: Staphylococcus haemolyticus 415; assay: broth micro-dilution MIC; format: cell-based
Description: as §1

[4] = system: Staphylococcus haemolyticus 105; assay: broth micro-dilution MIC; format: cell-based
Description: as §1

Entercoccus faecium 180 = assay: broth micro-dilution MIC; format: cell-based; details: Entercoccus faecium 180
Description: as §1

Entercoccus faecium 2041 = assay: broth micro-dilution MIC; format: cell-based; details: Entercoccus faecium 2041
Description: as §1

[5] = system: Entercoccus faecium 180-1; assay: broth micro-dilution MIC; format: cell-based
Description: (§2) The MIC's were determined using a standard broth micro-dilution assay.

Entercoccus faecium 276 = assay: broth micro-dilution MIC; format: cell-based
Description: as §2

[6] = system: Staphylococcus aureus SA1199; assay: broth micro-dilution MIC; format: cell-based
Description: as §2

[7] = system: Staphylococcus aureus 446; assay: broth micro-dilution MIC; format: cell-based
Description: as §2

[8] = system: Staphylococcus aureus X400; assay: broth micro-dilution MIC; format: cell-based
Description: as §2

[9] = system: Staphylococcus aureus X778; assay: broth micro-dilution MIC; format: cell-based
Description: as §2

[10] = system: Streptococcus pyogenes C203; assay: broth micro-dilution MIC; format: cell-based
Description: as §2

[11] = system: Staphylococcus aureus 491; assay: broth micro-dilution MIC; format: cell-based
Description: as §2

[12] = system: Staphylococcus aureus S13E; format: cell-based
Description: as §2

[13] = system: vancomycin-susceptible enterococci; assay: broth micro-dilution, mean geometric MIC; format: cell-based, Enterococcus faecium and Enterococcus faecalis; details: enterococci, 24-hour incubation
[14] = system: vancomycin-resistant enterococci; assay: broth micro-dilution, mean geometric MIC; format: cell-based, Enterococcus faecium and Enterococcus faecalis; details: enterococci, 24-hour incubation
[15] = system: Enterococcus gallinarum 245; assay: broth micro-dilution MIC; format: cell-based; details: Enterococcus gallinarum 245
Description: as §1

[16] = system: Staphylococcus aureus 447; assay: broth micro-dilution MIC; format: cell-based
Description: as §2

[17] = system: Staphylococcus aureus SA1199A; assay: broth micro-dilution MIC; format: cell-based
Description: as §2

[18] = system: Staphylococcus aureus SA1199B; format: cell-based
Description: as §2

Structure (SMILES)	MIC [1]	MIC [2]	MIC [3]	MIC [4]	MIC (Entercoccus faecium 180)	MIC (Entercoccus faecium 2041)	MIC [5]	MIC [6]	MIC [7]	MIC [8]	MIC [9]	MIC [10]	MIC [11]	MIC [12]	mean geometric MIC, Vancomycin Sensitive Strains [13]	mean geometric MIC, Vancomycin Resistant Strains [14]	MIC [15]	MIC [16]	MIC [17]	MIC [18]	other results
CNC(CC(C)C)C(=O)NC1C(=O)NC(CC(N)=O)C(=O)NC2C(=O)NC3C(=O)NC(C(=O)NC(C(=O)O)c4cc(O)cc(O)c4-c4cc3ccc4O)C(OC3CC(C)(N)C(O)C(C)O3)c3ccc(c(Cl)c3)Oc3cc2cc(c3OC2OC(CO)C(O)C(O)C2OC2CC(C)(NCC=Cc3ccccc3)C(O)C(C)O2)Oc2ccc(cc2Cl)C1O (stereo not drawn) [Compound 38]	≤ 0.06 µg/mL	0.5 µg/mL (≈ 0.293 µM)	1 µg/mL (≈ 0.585 µM)	1 µg/mL (≈ 0.585 µM)	≤ 0.06 µg/mL	≤ 0.06 µg/mL	≤ 0.06 µg/mL	1 µg/mL (≈ 0.585 µM)	0.5 µg/mL (≈ 0.293 µM)	1 µg/mL (≈ 0.585 µM)	0.5 µg/mL (≈ 0.293 µM)	≤ 0.06 µg/mL	0.5 µg/mL (≈ 0.293 µM)	≤ 0.06 µg/mL	0.42 µg/mL	4.0 µg/mL	–	–	–	–	MIC (Entercoccus faecium 276): 0.5 µg/mL (≈ 0.293 µM)
CNC(CC(C)C)C(=O)NC1C(=O)NC(CC(N)=O)C(=O)NC2C(=O)NC3C(=O)NC(C(=O)NC(C(=O)O)c4cc(O)cc(O)c4-c4cc3ccc4O)C(OC3CC(C)(N)C(O)C(C)O3)c3ccc(c(Cl)c3)Oc3cc2cc(c3OC2OC(CO)C(O)C(O)C2OC2CC(C)(NCCc3cccc(OCc4ccccc4)c3)C(O)C(C)O2)Oc2ccc(cc2Cl)C1O (stereo not drawn) [Compound 69]	–	2 µg/mL (≈ 1.11 µM)	8 µg/mL (≈ 4.44 µM)	4 µg/mL (≈ 2.22 µM)	4 µg/mL (≈ 2.22 µM)	–	≤ 0.06 µg/mL	1 µg/mL (≈ 0.555 µM)	1 µg/mL (≈ 0.555 µM)	0.5 µg/mL (≈ 0.277 µM)	–	–	1 µg/mL (≈ 0.555 µM)	–	0.44 µg/mL	13 µg/mL	8 µg/mL (≈ 4.44 µM)	1 µg/mL (≈ 0.555 µM)	≤ 0.06 µg/mL	2 µg/mL (≈ 1.11 µM)	MIC (Entercoccus faecium 276): 0.5 µg/mL (≈ 0.277 µM)
CNC(CC(C)C)C(=O)NC1C(=O)NC(CC(N)=O)C(=O)NC2C(=O)NC3C(=O)NC(C(=O)NC(C(=O)O)c4cc(O)cc(O)c4-c4cc3ccc4O)C(OC3CC(C)(N)C(O)C(C)O3)c3ccc(c(Cl)c3)Oc3cc2cc(c3OC2OC(CO)C(O)C(O)C2OC2CC(C)(NCc3ccc(-c4ccc(OC)cc4)s3)C(O)C(C)O2)Oc2ccc(cc2Cl)C1O (stereo not drawn) [Compound 71]	–	2 µg/mL (≈ 1.11 µM)	8 µg/mL (≈ 4.46 µM)	16 µg/mL (≈ 8.91 µM)	4 µg/mL (≈ 2.23 µM)	1 µg/mL (≈ 0.557 µM)	–	1 µg/mL (≈ 0.557 µM)	4 µg/mL (≈ 2.23 µM)	1 µg/mL (≈ 0.557 µM)	2 µg/mL (≈ 1.11 µM)	–	2 µg/mL (≈ 1.11 µM)	1 µg/mL (≈ 0.557 µM)	0.57 µg/mL	11 µg/mL	8 µg/mL (≈ 4.46 µM)	4 µg/mL (≈ 2.23 µM)	–	4 µg/mL (≈ 2.23 µM)	MIC (Entercoccus faecium 276): 2 µg/mL (≈ 1.11 µM)
CCN(CC)CCOc1ccc(CNC2(C)CC(OC3C(Oc4c5cc6cc4Oc4ccc(cc4Cl)C(OC4CC(C)(N)C(O)C(C)O4)C4NC(=O)C(NC(=O)C6NC(=O)C(CC(N)=O)NC(=O)C(NC(=O)C(CC(C)C)NC)C(O)c6ccc(c(Cl)c6)O5)c5ccc(O)c(c5)-c5c(O)cc(O)cc5C(C(=O)O)NC4=O)OC(CO)C(O)C3O)OC(C)C2O)cc1 (stereo not drawn) [Compound 83]	≤ 0.06 µg/mL	2 µg/mL (≈ 1.11 µM)	4 µg/mL (≈ 2.22 µM)	2 µg/mL (≈ 1.11 µM)	8 µg/mL (≈ 4.45 µM)	0.5 µg/mL (≈ 0.278 µM)	0.125 µg/mL (≈ 0.0695 µM)	2 µg/mL (≈ 1.11 µM)	1 µg/mL (≈ 0.556 µM)	2 µg/mL (≈ 1.11 µM)	0.5 µg/mL (≈ 0.278 µM)	≤ 0.06 µg/mL	0.5 µg/mL (≈ 0.278 µM)	0.125 µg/mL (≈ 0.0695 µM)	1.7 µg/mL	54 µg/mL	0.5 µg/mL (≈ 0.278 µM)	2 µg/mL (≈ 1.11 µM)	–	1 µg/mL (≈ 0.556 µM)	–
CNC(CC(C)C)C(=O)NC1C(=O)NC(CC(N)=O)C(=O)NC2C(=O)NC3C(=O)NC(C(=O)NC(C(=O)O)c4cc(O)cc(O)c4-c4cc3ccc4O)C(OC3CC(C)(N)C(O)C(C)O3)c3ccc(c(Cl)c3)Oc3cc2cc(c3OC2OC(CO)C(O)C(O)C2OC2CC(C)(NCc3ccc(OC(C)=O)c(OC)c3)C(O)C(C)O2)Oc2ccc(cc2Cl)C1O (stereo not drawn) [Compound 99]	–	1 µg/mL (≈ 0.565 µM)	32 µg/mL (≈ 18.1 µM)	8 µg/mL (≈ 4.52 µM)	–	–	≤ 0.06 µg/mL	0.5 µg/mL (≈ 0.282 µM)	0.5 µg/mL (≈ 0.282 µM)	–	0.5 µg/mL (≈ 0.282 µM)	–	1 µg/mL (≈ 0.565 µM)	0.5 µg/mL (≈ 0.282 µM)	0.76 µg/mL	72 µg/mL	32 µg/mL (≈ 18.1 µM)	2 µg/mL (≈ 1.13 µM)	0.5 µg/mL (≈ 0.282 µM)	0.5 µg/mL (≈ 0.282 µM)	–
CNC(CC(C)C)C(=O)NC1C(=O)NC(CC(N)=O)C(=O)NC2C(=O)NC3C(=O)NC(C(=O)NC(C(=O)O)c4cc(O)cc(O)c4-c4cc3ccc4O)C(OC3CC(C)(N)C(O)C(C)O3)c3ccc(c(Cl)c3)Oc3cc2cc(c3OC2OC(CO)C(O)C(O)C2OC2CC(C)(NCc3ccc(N4CCOCC4)cc3)C(O)C(C)O2)Oc2ccc(cc2Cl)C1O (stereo not drawn) [Compound 147]	≤ 0.06 µg/mL	–	8 µg/mL (≈ 4.53 µM)	1 µg/mL (≈ 0.566 µM)	2 µg/mL (≈ 1.13 µM)	≤ 0.06 µg/mL	2 µg/mL (≈ 1.13 µM)	0.5 µg/mL (≈ 0.283 µM)	0.5 µg/mL (≈ 0.283 µM)	4 µg/mL (≈ 2.26 µM)	–	≤ 0.06 µg/mL	≤ 0.06 µg/mL	1 µg/mL (≈ 0.566 µM)	1.3 µg/mL	–	–	–	≤ 0.06 µg/mL	≤ 0.06 µg/mL	–
CNC(CC(C)C)C(=O)NC1C(=O)NC(CC(N)=O)C(=O)NC2C(=O)NC3C(=O)NC(C(=O)NC(C(=O)O)c4cc(O)cc(O)c4-c4cc3ccc4O)C(OC3CC(C)(N)C(O)C(C)O3)c3ccc(c(Cl)c3)Oc3cc2cc(c3OC2OC(CO)C(O)C(O)C2OC2CC(C)(NCc3ccc4c(c3)CCCC4)C(O)C(C)O2)Oc2ccc(cc2Cl)C1O (stereo not drawn) [Compound 168]	≤ 0.06 µg/mL	–	2 µg/mL (≈ 1.15 µM)	0.5 µg/mL (≈ 0.288 µM)	0.25 µg/mL (≈ 0.144 µM)	≤ 0.06 µg/mL	≤ 0.06 µg/mL	0.5 µg/mL (≈ 0.288 µM)	≤ 0.06 µg/mL	≤ 0.06 µg/mL	0.5 µg/mL (≈ 0.288 µM)	≤ 0.06 µg/mL	0.5 µg/mL (≈ 0.288 µM)	≤ 0.06 µg/mL	0.10 µg/mL	3.4 µg/mL	2 µg/mL (≈ 1.15 µM)	≤ 0.06 µg/mL	≤ 0.06 µg/mL	1 µg/mL (≈ 0.576 µM)	–
CNC(CC(C)C)C(=O)NC1C(=O)NC(CC(N)=O)C(=O)NC2C(=O)NC3C(=O)NC(C(=O)NC(C(=O)O)c4cc(O)cc(O)c4-c4cc3ccc4O)C(OC3CC(C)(N)C(O)C(C)O3)c3ccc(c(Cl)c3)Oc3cc2cc(c3OC2OC(CO)C(O)C(O)C2OC2CC(C)(NCC3=CCC4CC3C4(C)C)C(O)C(C)O2)Oc2ccc(cc2Cl)C1O (stereo not drawn) [Compound 170]	≤ 0.06 µg/mL	1 µg/mL (≈ 0.579 µM)	4 µg/mL (≈ 2.32 µM)	4 µg/mL (≈ 2.32 µM)	2 µg/mL (≈ 1.16 µM)	≤ 0.06 µg/mL	≤ 0.06 µg/mL	1 µg/mL (≈ 0.579 µM)	2 µg/mL (≈ 1.16 µM)	0.5 µg/mL (≈ 0.29 µM)	1 µg/mL (≈ 0.579 µM)	≤ 0.06 µg/mL	0.5 µg/mL (≈ 0.29 µM)	–	0.22 µg/mL	8.0 µg/mL	4 µg/mL (≈ 2.32 µM)	0.5 µg/mL (≈ 0.29 µM)	≤ 0.06 µg/mL	–	MIC (Entercoccus faecium 276): 0.5 µg/mL (≈ 0.29 µM)
CNC(CC(C)C)C(=O)NC1C(=O)NC(CC(N)=O)C(=O)NC2C(=O)NC3C(=O)NC(C(=O)NC(C(=O)O)c4cc(O)cc(O)c4-c4cc3ccc4O)C(OC3CC(C)(N)C(O)C(C)O3)c3ccc(c(Cl)c3)Oc3cc2cc(c3OC2OC(CO)C(O)C(O)C2OC2CC(C)(NCc3ccc(NC(=O)c4cccc(F)c4)cc3)C(O)C(C)O2)Oc2ccc(cc2Cl)C1O (stereo not drawn) [Compound 194]	≤ 0.06 µg/mL	0.5 µg/mL (≈ 0.275 µM)	2 µg/mL (≈ 1.1 µM)	1 µg/mL (≈ 0.55 µM)	≤ 0.06 µg/mL	≤ 0.06 µg/mL	≤ 0.06 µg/mL	0.5 µg/mL (≈ 0.275 µM)	≤ 0.06 µg/mL	≤ 0.06 µg/mL	0.5 µg/mL (≈ 0.275 µM)	≤ 0.06 µg/mL	≤ 0.06 µg/mL	≤ 0.06 µg/mL	0.083 µg/mL	2.4 µg/mL	2 µg/mL (≈ 1.1 µM)	0.5 µg/mL (≈ 0.275 µM)	≤ 0.06 µg/mL	–	–
